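Each compound was tested at five concentrations against cells in 96-well plates for 48 hours. GI50 = concentration required for 50% inhibition of growth.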 The source made the active and inactive calls. Rule as the data show it: active = GI50 up to about 1.1 µM and inactive = higher. *1 amine or outer side, *2 acyl side, *3 side chain or, on linkers, in order; H or OH if unused. Where a SMILES comes first, the peptide text is derived from it. [ ]: non-standard residue; d: D form. The star is where a group is joined. ξ: configuration not given here. X53 = CC(C)C[C@H](N[*:1])C1=N[C@H](C(=O)[*:2])CS1; Ile(3ξ) = CCC(C)[C@H](N)C(=O)O; Allyl(1,1-Me2) = C=CC(C)(C)*
Legend:
Assay in all cases: DTP human tumour cell line panel, 48 h
SF-539 = test system: SF-539
SK-MEL-28 = test system: SK-MEL-28
IGROV-1 = test system: IGROV-1
SN12C = test system: SN12C
UACC-62 = test system: UACC-62
T47D = test system: T47D
SK-MEL-2 = test system: SK-MEL-2
A498 = test system: A498
MCF7 = test system: MCF7
U-251 = test system: U-251
HOP-62 = test system: HOP-62
M14 = test system: M14
COLO 205 = test system: COLO 205
K562 = test system: K562
Hs-578T = test system: Hs-578T
SF-268 = test system: SF-268
UACC-257 = test system: UACC-257
DU-145 = test system: DU-145
SK-MEL-5 = test system: SK-MEL-5
RPMI-8226 = test system: RPMI-8226

SMILES | GI50 (SF-539) | GI50 (SK-MEL-28) | GI50 (IGROV-1) | GI50 (SN12C) | GI50 (UACC-62) | GI50 (T47D) | GI50 (SK-MEL-2) | GI50 (A498) | GI50 (MCF7) | GI50 (U-251) | GI50 (HOP-62) | GI50 (M14) | GI50 (COLO 205) | GI50 (K562) | GI50 (Hs-578T) | GI50 (SF-268) | GI50 (UACC-257) | GI50 (DU-145) | GI50 (SK-MEL-5) | GI50 (RPMI-8226)
N=c1sc2ccccc2n1CC[S-].c1ccc2c(c1)sc1[n+]2CCS1 | 6.58 µM (inactive) | 18.7 µM (inactive) | 12.5 µM (inactive) | 21.1 µM (inactive) | 14 µM (inactive) | 23.6 µM (inactive) | 18.2 µM (inactive) | 14.7 µM (inactive) | 12.9 µM (inactive) | 15.5 µM (inactive) | 17.3 µM (inactive) | 16.1 µM (inactive) | 14.3 µM (inactive) | 16.7 µM (inactive) | 42.6 µM (inactive) | 20 µM (inactive) | 17.8 µM (inactive) | 21.2 µM (inactive) | 14.8 µM (inactive) | –
Cc1nc2ccc(NC3OC(CO)C(O)C(O)C3O)cc2c(=O)n1-c1ccccc1 (stereo unspecified) | – | > 100 µM (inactive) | > 100 µM (inactive) | > 100 µM (inactive) | > 100 µM (inactive) | > 100 µM (inactive) | > 100 µM (inactive) | > 100 µM (inactive) | > 100 µM (inactive) | > 100 µM (inactive) | > 100 µM (inactive) | – | > 100 µM (inactive) | > 100 µM (inactive) | > 100 µM (inactive) | > 100 µM (inactive) | > 100 µM (inactive) | > 100 µM (inactive) | 58.3 µM (inactive) | > 100 µM (inactive)
CC(C)(C)N/N=C(\C(=O)NC1=C(Cl)C(=O)c2ccccc2C1=O)C1C=CCS1(=O)=O (stereo unspecified) | 23.1 µM (inactive) | > 100 µM (inactive) | 10 µM (inactive) | 15.1 µM (inactive) | 3.3 µM (inactive) | 19.5 µM (inactive) | 11.2 µM (inactive) | 21.2 µM (inactive) | 13.1 µM (inactive) | > 100 µM (inactive) | – | 11.5 µM (inactive) | 16.6 µM (inactive) | > 100 µM (inactive) | 19.5 µM (inactive) | 21.9 µM (inactive) | 13.6 µM (inactive) | 11.1 µM (inactive) | – | > 100 µM (inactive)
CCON1CC(C(=O)OC)=C(O)C1=O | – | > 100 µM (inactive) | > 100 µM (inactive) | – | > 100 µM (inactive) | > 100 µM (inactive) | > 100 µM (inactive) | > 100 µM (inactive) | > 100 µM (inactive) | > 100 µM (inactive) | > 100 µM (inactive) | > 100 µM (inactive) | > 100 µM (inactive) | > 100 µM (inactive) | > 100 µM (inactive) | > 100 µM (inactive) | > 100 µM (inactive) | > 100 µM (inactive) | > 100 µM (inactive) | > 100 µM (inactive)
COC(=O)c1c2c(cc3c1CC1(Cc4ccccc4C1=O)C3)CCC2 (stereo unspecified) | 71.1 µM (inactive) | 93.3 µM (inactive) | 26.6 µM (inactive) | 25.7 µM (inactive) | – | 52.7 µM (inactive) | 43.7 µM (inactive) | 22.4 µM (inactive) | 43.8 µM (inactive) | 56.5 µM (inactive) | 42.8 µM (inactive) | 31.3 µM (inactive) | 3.52 µM (inactive) | 8.34 µM (inactive) | 50 µM (inactive) | 48.8 µM (inactive) | 43.3 µM (inactive) | > 100 µM (inactive) | 15.3 µM (inactive) | 18.6 µM (inactive)
N#Cc1c(NC(=S)Nc2ccccc2)sc2c1CCCC2 | – | > 100 µM (inactive) | > 100 µM (inactive) | > 100 µM (inactive) | 94.2 µM (inactive) | > 100 µM (inactive) | > 100 µM (inactive) | > 100 µM (inactive) | > 100 µM (inactive) | > 100 µM (inactive) | > 100 µM (inactive) | – | > 100 µM (inactive) | > 100 µM (inactive) | > 100 µM (inactive) | > 100 µM (inactive) | > 100 µM (inactive) | > 100 µM (inactive) | > 100 µM (inactive) | > 100 µM (inactive)
COc1cc(C)c(S(=O)(=O)N(CCCN)OCCCN)c(C)c1C | – | 38.9 µM (inactive) | 20.2 µM (inactive) | 57 µM (inactive) | 48.1 µM (inactive) | 29.8 µM (inactive) | 22.2 µM (inactive) | 39.4 µM (inactive) | 19.4 µM (inactive) | 29.9 µM (inactive) | 61.7 µM (inactive) | 23.6 µM (inactive) | 21 µM (inactive) | 15.6 µM (inactive) | 23 µM (inactive) | 36.7 µM (inactive) | 21.4 µM (inactive) | 33.7 µM (inactive) | 20.8 µM (inactive) | 17.5 µM (inactive)
C=CCn1c(-c2ccc(/N=N/Nc3ccc(-c4n[nH]c(=S)n4CC=C)cc3)cc2)n[nH]c1=S | – | 6.9 µM (inactive) | 3.34 µM (inactive) | 3.49 µM (inactive) | – | 1.11 µM (active) | 2.67 µM (inactive) | > 100 µM (inactive) | 3.69 µM (inactive) | 4.36 µM (inactive) | 3.4 µM (inactive) | 3.03 µM (inactive) | 2.94 µM (inactive) | 2.12 µM (inactive) | 5.15 µM (inactive) | 5.06 µM (inactive) | 3.33 µM (inactive) | 3.65 µM (inactive) | 1.53 µM (inactive) | 1.76 µM (inactive)
CN(C)C1C(O)=C(C(=O)NCN2CCCC2)C(=O)C2(O)C(O)=C3C(=O)c4c(O)cccc4C(C)(O)C3CC12 (stereo unspecified) | – | > 100 µM (inactive) | > 100 µM (inactive) | > 100 µM (inactive) | > 100 µM (inactive) | > 100 µM (inactive) | > 100 µM (inactive) | > 100 µM (inactive) | 54.6 µM (inactive) | 88.9 µM (inactive) | > 100 µM (inactive) | 77.3 µM (inactive) | > 100 µM (inactive) | 57 µM (inactive) | > 100 µM (inactive) | > 100 µM (inactive) | 69.2 µM (inactive) | 62.2 µM (inactive) | > 100 µM (inactive) | > 100 µM (inactive)
CN1CCN(CC(=O)N2CCCn3c2nc2ccccc2c3=O)CC1 | > 100 µM (inactive) | – | > 100 µM (inactive) | > 100 µM (inactive) | > 100 µM (inactive) | > 100 µM (inactive) | > 100 µM (inactive) | > 100 µM (inactive) | > 100 µM (inactive) | > 100 µM (inactive) | > 100 µM (inactive) | > 100 µM (inactive) | > 100 µM (inactive) | > 100 µM (inactive) | > 100 µM (inactive) | > 100 µM (inactive) | > 100 µM (inactive) | > 100 µM (inactive) | > 100 µM (inactive) | > 100 µM (inactive)
Cc1cc(OCc2nnc3n2S(=O)(=O)c2ccccc2N3C)ccc1Cl | 16.7 µM (inactive) | 86.5 µM (inactive) | 22.9 µM (inactive) | 32.4 µM (inactive) | 17.2 µM (inactive) | 18.5 µM (inactive) | > 100 µM (inactive) | 24.6 µM (inactive) | 89.7 µM (inactive) | 18.6 µM (inactive) | 14.1 µM (inactive) | > 100 µM (inactive) | > 100 µM (inactive) | 68.7 µM (inactive) | 40.8 µM (inactive) | 16.3 µM (inactive) | 61 µM (inactive) | 56 µM (inactive) | 38.7 µM (inactive) | –
Cc1cc(-c2nc3cc(O)ccc3s2)ccc1N | 25.5 µM (inactive) | 27.8 µM (inactive) | 33.4 µM (inactive) | 28.8 µM (inactive) | 19.9 µM (inactive) | 22.9 µM (inactive) | 28.4 µM (inactive) | 24.7 µM (inactive) | 17.6 µM (inactive) | 30.5 µM (inactive) | 26.8 µM (inactive) | 20.9 µM (inactive) | 21 µM (inactive) | 38.5 µM (inactive) | 35.2 µM (inactive) | 36.7 µM (inactive) | 35.1 µM (inactive) | 39.8 µM (inactive) | 22.5 µM (inactive) | –
C=CC(C)(C)OC[C@@H]1NC(=O)CNC(=O)[C@@H]2CCCN2C(=O)[C@H](C(C)CC)NC(=O)[C@@H]2CSC(=N2)[C@H](CC(C)C)NC1=O (stereo partly specified) (cyclo(GS(Allyl(1,1-Me2))[X53][Ile(3ξ)]P)) | > 100 µM (inactive) | – | 59 µM (inactive) | > 100 µM (inactive) | 72.3 µM (inactive) | 33.6 µM (inactive) | > 100 µM (inactive) | > 100 µM (inactive) | 40.6 µM (inactive) | > 100 µM (inactive) | > 100 µM (inactive) | > 100 µM (inactive) | > 100 µM (inactive) | 41.7 µM (inactive) | 23.2 µM (inactive) | 68.4 µM (inactive) | 38.5 µM (inactive) | 77.6 µM (inactive) | 32.6 µM (inactive) | 18.6 µM (inactive)
CC(C)N1CCN(c2ccc(OCC3COC(Cn4cncn4)(c4ccc(Cl)cc4Cl)O3)cc2)CC1 (stereo unspecified) [TERCONAZOLE] | 13.3 µM (inactive) | 4.63 µM (inactive) | 16 µM (inactive) | 15.8 µM (inactive) | 2.34 µM (inactive) | 18 µM (inactive) | 14.7 µM (inactive) | 14 µM (inactive) | 13.2 µM (inactive) | 12.9 µM (inactive) | 13.8 µM (inactive) | – | 1.9 µM (inactive) | 3.47 µM (inactive) | 12.2 µM (inactive) | 12.3 µM (inactive) | 1.89 µM (inactive) | 16.3 µM (inactive) | 2.18 µM (inactive) | 10.5 µM (inactive)
